In paper PMC11619365, “Histone deacetylase 2 and 3 of Sarcoptes scabiei: characterization of a potential drug target” (Microbiology Spectrum, 2024):

Experiments:
Type in all cases: biochemical
[1] = target: T1, rSsHDAC-3 (Sarcoptes scabiei, UniProt A0A834REN1); test: fluorogenic trypsin-coupled deacetylase assay (excitation […] nm, emission […] nm); conditions: HEPES pH 8.0, 1 mM MgCl2, 37 °C, 2 h
T1 construct: ORF 411 residues (1,236 bp; amplified fragment printed as around 1,000 bp), pET32a(+) N-terminal Trx/His tag kept (about 18 kDa), 63 kDa on SDS-PAGE, E. coli BL21(DE3), soluble, Ni-NTA; no co-repressor partner
T1 sequence (A0A834REN1 1-411): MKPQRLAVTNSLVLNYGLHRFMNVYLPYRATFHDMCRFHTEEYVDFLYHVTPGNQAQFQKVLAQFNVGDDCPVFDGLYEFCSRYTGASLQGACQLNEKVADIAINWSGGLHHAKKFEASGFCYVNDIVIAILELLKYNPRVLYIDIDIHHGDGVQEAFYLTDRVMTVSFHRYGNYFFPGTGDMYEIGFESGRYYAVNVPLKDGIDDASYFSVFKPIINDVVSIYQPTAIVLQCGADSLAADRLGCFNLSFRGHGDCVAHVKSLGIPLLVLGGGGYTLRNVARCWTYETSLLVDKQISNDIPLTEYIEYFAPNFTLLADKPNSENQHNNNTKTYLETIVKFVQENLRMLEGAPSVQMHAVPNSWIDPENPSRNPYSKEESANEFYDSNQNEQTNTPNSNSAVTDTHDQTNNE

[2] = target: T2, rSsHDAC-2 (Sarcoptes scabiei, UniProt A0A834RGW6); test: fluorogenic trypsin-coupled deacetylase assay; conditions: Boc-Lys(ε-Ac)-AMC substrate buffer 100 µM (25 of 50 µL), HEPES pH 8.0, 1 mM MgCl2, 37 °C, 2 h; inhibitor concentration as printed, but 1 µL of it added to 50 µL, so final concentration unclear
T2 sequence (A0A834RGW6 1-304): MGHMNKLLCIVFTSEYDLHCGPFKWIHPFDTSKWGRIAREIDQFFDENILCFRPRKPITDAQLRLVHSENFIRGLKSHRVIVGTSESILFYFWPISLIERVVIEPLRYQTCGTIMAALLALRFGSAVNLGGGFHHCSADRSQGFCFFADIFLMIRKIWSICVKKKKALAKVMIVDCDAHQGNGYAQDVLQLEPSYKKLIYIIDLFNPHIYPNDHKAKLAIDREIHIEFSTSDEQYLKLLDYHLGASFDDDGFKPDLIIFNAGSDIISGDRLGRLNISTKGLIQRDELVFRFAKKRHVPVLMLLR

[3] = target: T1, rSsHDAC-3; test: fluorogenic trypsin-coupled deacetylase assay

CC(=O)NCCCC[C@H](NC(=O)OC(C)(C)C)C(=O)Nc1ccc2c(C)cc(=O)oc2c1 [Boc-Lys(ε-Ac)-AMC]
fluorogenic trypsin-coupled deacetylase assay (excitation 355 nm, emission 460 n) [1]: whereas the intensity in the rSsHDAC-3 group increased significantly

COc1ccccc1NC(=O)NCc1ccc(C(=O)NO)cc1 [Elevenostat]
% inhibition at 10 μM [2]: 81.2%

Nc1cc(F)ccc1NC(=O)/C=C/c1cnn(C/C=C/c2ccccc2)c1 [RGFP966]
inhibition at 10 µM [3]: 68.9%
